What was measured:
[1] = biological target: metalloprotease LF (lethal factor) (Bacillus anthracis, UniProt P15917); assay: biochemical
Akt1 = Akt1 (Homo sapiens, UniProt P31749); assay: Selectivity profile: Akt1; format: biochemical
[2] = Insulin tolerance test in insulin insensitive db/db mice; format: in vivo; conditions: 25 mg/kg i.p. once, 30 minutes prior to insulin injection

Sequence of metalloprotease LF (lethal factor) (P15917 34-809 limits assumed): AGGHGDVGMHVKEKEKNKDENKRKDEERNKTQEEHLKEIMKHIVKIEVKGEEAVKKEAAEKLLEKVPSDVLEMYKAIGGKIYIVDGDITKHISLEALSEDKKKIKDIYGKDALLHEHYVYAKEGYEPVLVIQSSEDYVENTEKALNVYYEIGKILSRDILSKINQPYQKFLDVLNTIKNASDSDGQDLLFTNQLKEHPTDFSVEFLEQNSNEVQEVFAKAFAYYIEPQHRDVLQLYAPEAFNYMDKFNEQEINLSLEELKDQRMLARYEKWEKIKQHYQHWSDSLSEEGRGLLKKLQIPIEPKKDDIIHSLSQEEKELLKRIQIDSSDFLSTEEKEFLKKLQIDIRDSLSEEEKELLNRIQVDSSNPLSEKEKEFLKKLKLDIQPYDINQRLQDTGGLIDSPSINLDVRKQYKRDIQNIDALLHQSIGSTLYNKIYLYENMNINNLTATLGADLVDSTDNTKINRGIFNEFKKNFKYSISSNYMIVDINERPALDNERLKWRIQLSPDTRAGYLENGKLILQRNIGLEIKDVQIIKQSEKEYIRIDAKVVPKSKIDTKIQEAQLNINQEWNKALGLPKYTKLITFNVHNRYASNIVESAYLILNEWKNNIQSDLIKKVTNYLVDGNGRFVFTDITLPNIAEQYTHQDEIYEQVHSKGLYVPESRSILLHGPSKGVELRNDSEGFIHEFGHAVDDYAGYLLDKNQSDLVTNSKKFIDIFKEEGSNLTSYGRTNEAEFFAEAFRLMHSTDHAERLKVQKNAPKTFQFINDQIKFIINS
Sequence of Akt1 (P31749 whole entry, species assumed): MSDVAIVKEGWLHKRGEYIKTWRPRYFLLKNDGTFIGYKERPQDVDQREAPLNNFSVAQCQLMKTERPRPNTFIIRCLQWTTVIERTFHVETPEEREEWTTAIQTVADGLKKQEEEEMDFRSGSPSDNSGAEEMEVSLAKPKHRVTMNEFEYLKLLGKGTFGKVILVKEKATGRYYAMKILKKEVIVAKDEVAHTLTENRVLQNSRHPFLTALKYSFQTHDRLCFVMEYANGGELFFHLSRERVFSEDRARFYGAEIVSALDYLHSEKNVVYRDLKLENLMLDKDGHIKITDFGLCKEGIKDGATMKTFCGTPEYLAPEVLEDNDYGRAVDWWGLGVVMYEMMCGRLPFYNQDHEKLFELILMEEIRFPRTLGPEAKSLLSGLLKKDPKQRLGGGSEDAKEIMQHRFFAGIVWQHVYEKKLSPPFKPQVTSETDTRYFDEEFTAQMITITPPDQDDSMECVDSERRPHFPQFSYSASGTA

| Structure (SMILES) | IC50 [1] [µM] | activity against Akt kinase (Akt1) | effect of insulin on blood glucose levels compared to the vehicle control [2] |
| --- | --- | --- | --- |
| O=c1[nH]nc(Sc2ncc([N+](=O)[O-])s2)n1-c1ccc([N+](=O)[O-])cc1 [Compound 3j, 4-(4-nitrophenyl)-5-(5-nitrothiazol-2-ylthio)-4H-1,2,4-triazol-3-ol] | > 100 | – | – |
| Cn1cccc1-c1nnc(Sc2ncc([N+](=O)[O-])s2)n1-c1ccc(Cl)cc1Cl [Compound 7b, 2-(4-(2,4-dichlorophenyl)-5-(1-methyl-1H-pyrrol-2-yl)-4H-1,2,4-triazol-3-ylthio)-5-nitrothiazole] | > 100 | – | – |
| O=[N+]([O-])c1cnc(Sc2nnc(Sc3ncc([N+](=O)[O-])s3)s2)s1 [Compound 8f, 2,5-bis(5-nitrothiazol-2-ylthio)-1,3,4-thiadiazole] | > 100 | – | – |
| Nc1nnc(Sc2ncc([N+](=O)[O-])s2)s1 [Compound 9, 5-(5-nitrothiazol-2-ylthio)-1,3,4-thiadiazol-2-amine] | > 100 | completely inactive | statistically significant reduction in blood glucose levels |

Source: article PMC2667321 (Journal of medicinal chemistry, 2009)
